Data set [1] in a line: Metabolic stability in cynomolgus monkey liver microsomes. As to conditions: 1 μM compound, 0.5 mg/mL microsomes; FIG. 1. As for the experimental part: (§1) The objectives of this study were to determine the metabolic stability of the test compounds in pooled human and […] liver microsomal incubations. Samples of the test compounds, exposed to pooled human or […] liver microsomes, were analyzed using HPLC-MS (or MS/MS) detection. For determining metabolic stability, multiple reaction monitoring (MRM) was used to measure the disappearance of the test compounds.
(§2) Experimental Procedures: Human liver and Cynomolgus monkey liver microsomes were obtained from XenoTech, LLC (Lenexa, KS). The incubation mixtures were prepared as follows:
Incubation of Test Compounds with Liver Microsomes: The reaction mixture, minus cofactors, was prepared. An aliquot of the reaction mixture (without cofactors) was incubated in a shaking water bath at 37° C. for 3 minutes. Another aliquot of the reaction mixture was prepared as the negative control. The test compound was added into both the reaction mixture and the negative control at a final concentration of 0.10, 0.25, or 1 μM. An aliquot of the reaction mixture was prepared as a blank control, by the addition of plain organic solvent (no test compound is added). The reaction was initiated by the addition of cofactors (not added to the negative controls), and then incubated in a shaking water bath at 37° C. […]
All samples were analyzed using LC-MS (or MS/MS). […]
For orientation: Microsomes from liver hold many membrane-bound enzymes, among them those of drug oxidation.

For data set [2] the following is noted: monkeys, FIG. 6. On the procedure: OBJECTIVE—The objective of this study was to collect plasma samples from Cynomolgus Monkeys at various time points following oral administration of test articles in combination. The samples were used for the determination of plasma drug levels by LC/MS/MS for estimating pharmacokinetic parameters. This study was conducted in accordance with Shanghai Medicilon Inc. Standard Operating Procedures (SOPs). The Sponsor provided the test compounds and internal standard compound.
EXPERIMENTAL DESIGN—Four Cynomolgus Monkeys were used in this study.
The combination dose was prepared by mixing both by 1:1 to yield a concentration of 1 mg/mL for each compound. […] Quinidine was prepared in DMI:EtOH:PG:water (10:15:35:40, v/v/v/v) at 3 mg/mL and dosed separately. The doses were given BID orally with an interval of 12 hours. […] Dosing volume of Quinidine was determined based on the dose each animal was getting. Dose volumes for each test animal was determined based on individual body weight. Body weights were taken on each day of dose administration and were be recorded.
Urine Sample Collection—Urine samples in between two doses on Day 5 (for 12 hours between doses 9 and 10) were collected in a plate and quantified by volume. After collection, the urine samples were be stored in −20° C. and then shipped back to client. […]

A short description of data set [3]: Metabolic stability in human liver microsomes. The conditions noted are these: for remained intact after 30 minutes of incubation: 0.25 μM compound, 2 mg/mL human liver microsomes, FIG. 2. As for the experimental part: as §1, §2
Incubation of Test Compounds with Liver Microsomes: The reaction mixture, minus cofactors, was prepared. An aliquot of the reaction mixture (without cofactors) was incubated in a shaking water bath at 37° C. for 3 minutes. Another aliquot of the reaction mixture was prepared as the negative control. The test compound was added into both the reaction mixture and the negative control at a final concentration of 0.10, 0.25, or 1 μM. An aliquot of the reaction mixture was prepared as a blank control, by the addition of plain organic solvent (no test compound is added). The reaction was initiated by the addition of cofactors (not added to the negative controls), and then incubated in a shaking water bath at 37° C. Aliquots (200 μL) were withdrawn in triplicate at multiple time points and combined with 800 μL of ice-cold 50/50 acetonitrile/dH2O to terminate the reaction.
All samples were analyzed using LC-MS (or MS/MS). An LC-MRM-MS/MS method is used for metabolic stability. For testing in cynomolgus monkey liver microsomes, a final concentration of 1 μM of each compound and 0.5 mg/mL of microsomes were used.

Data set [4] in a line: Plasma levels in cynomolgus monkeys after oral BID co-dosing of Compound 101 and dextromethorphan, with or without quinidine. Format: in vivo.
Procedure: Blood Sample Collection—Blood sampling tOOK place on Day 6 after oral administration of the last dose (Dose 11). Blood (approximately 1 mL) was collected via femoral vein into tubes containing sodium heparin anticoagulant at 0.25, 0.5, 1, 1.5, 2, 3.5, 6 and 8 hours. The plasma was separated via centrifugation and stored in −20° C. before analysis.
Dilution using cynomolgus monkey plasma blank were applied if the sample concentration was over the ULOQ of calibration standard curve. The data acquisition and control system was created using Analyst 1.4 software from ABI Inc.
The target in data set [5] is T1, Human CYP2D6+P450 Reductase SUPERSOMES (Homo sapiens, UniProt P10635).
T1 construct: purchased GenTest (Woburn, MA, USA); host or cells: insect cells (inferred from the negative control, insect cell microsomes)
The data set is described as follows: Metabolic stability in CYP2D6 SUPERSOMES
Format: in vitro ADME. The conditions noted are these: 0.1 μM compound, 20 minutes. As for the experimental part:
Human CYP2D6+P450 Reductase SUPERSOMES™ were purchased from GenTest (Woburn, MA, USA). […] Aliquots (50 μL) were removed from each sample and placed in wells of a multi-well plate at 0, 2, 5, 7, 12, 20, and 30 minutes and to each was added 50 μL of ice cold acetonitrile with 3 μM haloperidol as an internal standard to stop the reaction.
Plates containing the removed aliquots were then placed in −20° C. freezer for 15 minutes to cool. After cooling, 100 μL of deionized water was added to all wells in the plate. Plates were then spun in the centrifuge for 10 minutes at 3000 rpm. A portion of the supernatant (100 μL) was then removed, placed in a new plate and analyzed using Mass Spectrometry.

T1 sequence (P10635 whole entry): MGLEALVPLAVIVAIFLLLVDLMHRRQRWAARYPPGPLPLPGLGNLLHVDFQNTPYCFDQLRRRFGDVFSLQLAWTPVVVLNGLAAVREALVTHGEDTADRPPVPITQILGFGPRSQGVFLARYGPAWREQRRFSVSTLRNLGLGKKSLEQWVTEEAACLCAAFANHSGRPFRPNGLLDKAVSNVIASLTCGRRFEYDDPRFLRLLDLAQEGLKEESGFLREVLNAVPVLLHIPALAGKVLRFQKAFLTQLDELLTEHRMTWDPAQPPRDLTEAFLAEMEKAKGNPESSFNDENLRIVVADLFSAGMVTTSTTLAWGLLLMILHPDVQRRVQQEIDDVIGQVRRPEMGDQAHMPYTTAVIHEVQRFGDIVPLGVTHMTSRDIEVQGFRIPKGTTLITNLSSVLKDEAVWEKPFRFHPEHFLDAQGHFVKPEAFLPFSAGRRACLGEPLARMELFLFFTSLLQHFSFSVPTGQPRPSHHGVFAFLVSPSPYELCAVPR

For the compound `[2H]C([2H])([2H])Oc1ccc2c(c1)[C@]13CCCC[C@@H]1[C@H](C2)N(C([2H])([2H])[2H])CC3` [Compound 101, (+)-3-d3-methoxy-17-d3-methyl-(9α, 13α, 14α)-morphinan], the “stability in monkey liver microsomes compared with dextromethorphan” value in data set [1] is on record as “greater stability than dextromethorphan”. The “urine level of parent compound compared to dextromethorphan” value in data set [2] (at the same quinidine concentration) is on record as “less Compound 101 in the urine than dextromethorphan”. Also, the “remained intact after 30 minutes of incubation” value (“remained intact after 30 minutes” below) in data set [3] is given as “approximately 45%”. Besides, the “plasma levels compared to dextromethorphan” value in data set [4] (co administered with the same amount of quinidine, FIG. 5) is “greater than dextromethorphan plasma levels”. The “metabolism to deuterated dextrorphan isotopologues (plasma)” value in data set [4] (no quinidine, FIG. 4) is on record as “reduced relative to metabolism of dextromethorphan to dextrorphan”.

Consider `COc1ccc2c(c1)[C@]13CCCC[C@@H]1[C@H](C2)N(C)CC3` [Dextromethorphan, (+)-3-methoxy-17-methyl-(9α, 13α, 14α)-morphinan, reference compound], for which the “intact compound at the 20 minute time point with 2D6 Supersomes” value in data set [5] is “no intact dextromethorphan could be detected”. In addition, the “urine levels, effect of quinidine concentration” value in data set [2] was “affected by increasing quinidine concentration”. Besides, the “remained intact after 30 minutes” value in data set [3] is on record as “about 33%”.

With “(+)-3-d3-methoxy-17-methyl-(9α, 13α, 14α)-morphinan [Compound 100]”, in data set [1], the “stability in monkey liver microsomes compared with dextromethorphan” value is “greater stability than dextromethorphan”. In data set [3], the “remained intact after 30 minutes” value is on record as about 42%. In addition, in data set [3] (0.5 mg/mL human liver microsomes), the “remained intact after a 30 minute exposure” value is about 71%.
